Assay results reported in patent EP0603240B1, “SAFENING HERBICIDAL PYRAZOLYLSULFONYLUREAS” (priority 1991, dated 1993).

Legend:
[1] = system: corn; assay: Example 13, Procedure II: Herbicide No. 1 + acetochlor (No. 6) with dichloroacetamide antidotes; format: in vivo; details: Herbicide Nos. 1 and 6, Table 13
Method: (§1) Containers were filled and compacted with a fumigated silt loam top soil to a depth of about 1.3 cm from the top of the container. A first container was designated as an untreated control, a second container was designated as a herbicide control, and a third container was designated as a herbicide + antidote test container. Each of the containers was seeded with a crop species. A measured amount of herbicide dispersed or dissolved in acetone was applied to a measured quantity of soil. To this same quantity of soil treated with herbicide, there was added a measured amount of antidote dispersed or dissolved in acetone. The quantity of soil treated with the herbicide and antidote was thoroughly mixed to incorporate the herbicide and antidote in the soil uniformly. The seed bed in the third container of soil was covered with the soil treated with the herbicide and antidote and the container was leveled. For each test series, the seed beds of the first and second containers were likewise covered by soil layers. the cover layer of the first container was not treated with herbicide or antidote.
(§2) The containers were then placed on a bench in a greenhouse and sub-irrigated as required for the duration of the test. […] Plant response is measured in terms of percent injury. Antidote efficacy is indicated as the difference in plant injury by the herbicide(s) without the antidote and with the antidote.
(§3) This procedure is the same as Procedure I, but modified in the manner that after incorporation of the chemicals (herbicide and antidote) the containers with the covered seedbed were treated with an initial overhead irrigation equivalent to 0.6 cm rainfall, then subsequently sub-irrigated as required on greenhouse benches.
In this example a plurality of dichloroacetamide antidotes were tested for their safening efficacy against a herbicidal composition comprising Herbicide No. 1 and a co-herbicide, acetochlor (Herbicide No. 6) in corn in the presence of velvetleaf. The procedure used in this example was Procedure II above.

[2] = system: corn; assay: Example 11, Procedure II: Herbicide No. 1 + metazachlor (No. 14) with antidotes; format: in vivo; details: for safening of corn, assessment in words: Herbicides 1 and 14, Table 11
Method: as §1, §2, §3
(§4) In this example, yet another α-chloroacetanilide co-herbicide, metazachlor (Herbicide No. 14) was combined with Herbicide No. 1 for investigation of the effect of various safeners on that composition. Metazachlor is the active ingredient in the commercial herbicide BUTISAN® S, used here as a 500 g/L formulation.

[3] = system: velvetleaf (Abutilon theophrasti); assay: as above; format: in vivo; details: Herbicide No.14 3.36 kg/ha alone, no antidote
Method: as §1, §2, §3
(§5) In the series of greenhouse tests described below, for routine screening purposes the herbicide/antidote compositions were tested in crop/weed combinations involving corn as the crop and either or both of the weeds barnyardgrass (Echinochloa crusgalli), a monocotyledonous weed, and velvetleaf (Abutilon theophrasti), a dicotyledonous weed. In the tables below, these weeds are indicated by the symbols "BYG" and "VL", respectively.
as §4

[4] = system: barnyardgrass (Echinochloa crusgalli); assay: as above; format: in vivo; details: Herbicide No.14 3.36 kg/ha alone, no antidote
Method: as §1, §2, §3, §5, §4

[5] = system: corn; assay: Example 7, Procedure II: Herbicide No. 1 + metolachlor (No. 12) with antidotes; format: in vivo
Method: as §1, §2, §3
(§6) In this example, Procedure II described above was followed. The data from the tests in this example is shown in Table 6 and represents averages of duplicate replications.
The tests in this example followed the same procedure and antidotes used in Example 6. However, Herbicide No. 12 (metolachlor) was used as the co-herbicide with Herbicide No. 1.

[6] = system: corn; assay: Example 19, Procedure II: Herbicide No. 1 + ERADICANE EXTRA with added antidotes; format: in vivo; details: for corn injury: Herbicide No. 1 + ERADICANE EXTRA + added antidote, highest rates of antidotes and herbicides
Method: as §1, §2, §3
(§7) In the test reported in this example, the herbicidal composition was similar to that used in Example 16 in that Herbicide No. 1 was combined with EPTC (Herbicide No. 4) as a co-herbicide and the antidotes included Nos. 1, 2, 7, 13 and 15. However, in this test the EPTC was introduced as a formulation of ERADICANE (EPTC + the antidote R-25788, i.e., Antidote No. 1) at an application rate of 8.96 kg/ha. Thus, in this test two antidotes were present, viz. R-25788 and one of the auxilliary antidotes, No. 2, 13 and 15.
The test reported in this example was performed in the same manner and with the same antidotes used in Example 18, the only difference being the substitution of the commercial herbicidal product ERADICANE® EXTRA for ERADICANE®. ERADICANE EXTRA is a formulation containing both an antidote, i.e., R-29148 (Antidote No. 5 herein), and an extender, dietholate.

[7] = system: corn; assay: Example 9, Procedure II: Herbicide No. 1 + pretilachlor (No. 13) with antidotes; format: in vivo; details: Herbicide Nos. 1 and 13, Table 9
Method: as §1, §2, §3
In this example the safening effect on a composition comprising Herbicide No. 1 and another leading rice herbicide, i.e., Herbicide No. 13, was investigated using the same antidotes and test procedure described in the preceding example. Herbicide No. 13 is pretilachlor, active ingredient used in the commercial rice herbicides RIFIT®, SOFIT® and SOFIT® SUPER.

[8] = system: corn; assay: Example 25, greenhouse preemergence test: Antidote Nos. 1 and 2 against Herbicide Nos. 1-3; format: in vivo, Corn (Pioneer 3424 variety); details: preemergence
Method: The chemicals were tested in both preemergence and post-emergence modes of application. The herbicides were prepared and applied as wettable powders; dichlormid was applied as an emulsifiable concentrate, while the naphthalic anhydride was applied as a coating on the corn seed prior to planting.
(§8) Test data from the preemergence tests are shown in Table 25A and from the post-emergence tests in Table 25B. In the tables, the concentration of chemicals is shown in terms of active ingredient in grams per hectare (G/ha); concentrations of the naphthalic anhydride were not measured per se, but were present as in conventional, normally-coated applications. Corn injury is shown in terms of percent inhibition of growth.

[9] = system: corn; assay: Example 25, greenhouse post-emergence test: Antidote Nos. 1 and 2 against Herbicide Nos. 1-3; format: in vivo, Corn (Pioneer 3424 variety); details: Herbicide Nos. 1-3
Method: Additional tests were conducted in the greenhouse in order to evaluate the antidotal efficacy of Antidote Nos. 1 (dichlormid) and 2 (naphthalic anhydride) in protecting corn from the herbicidal activity of Herbicide Nos. 1-3 (i.e., NC-319, NC-319 EX and NC-311, respectively). The chemicals were tested in both preemergence and post-emergence modes of application. The herbicides were prepared and applied as wettable powders; dichlormid was applied as an emulsifiable concentrate, while the naphthalic anhydride was applied as a coating on the corn seed prior to planting.
Corn seeds (Pioneer 3424 variety) were planted in alluvial soil containing compost and fertilizer in pots 12 cm. in diameter. Test chemicals were applied with a spray gun at the spray volume rate of 11.2 l/ha at the time of seeding in the preemergence tests and seven (7) days after seeding in the post-emergence tests, when the check (control) plants were at the 16-20 cm., 3.0-3.2 leaf stage, and naphthalic anhydride coated seed grown plants were at the 14-16 cm., 2.8-3.0 leaf stage.
as §8

[10] = system: corn; assay: Example 5, Procedure I: Herbicide No. 1 + alachlor (No. 7) with Antidote Nos. 15 and 16; format: in vivo; details: Herbicide No.1 6.72 + No.7 2.24 kg/ha + antidote 2.24 kg/ha
Method: as §1, §2
This example describes tests with Antidote Nos. 15 and 16 to safen Herbicide No. 1 according to Procedure I using corn and the weeds barnyardgrass and velvetleaf as the test plants.
In the tests described in this example, the same procedure described in Example 4 was performed simultaneously therewith and under the same conditions, except that a co-herbicide, alachlor, was included in the same composition with Herbicide No. 1 and Antidote Nos. 15 and 16. Alachlor (Herbicide No. 7 herein) is the active ingredient in the commercial product LASSO® herbicide.

[11] = system: corn; assay: Example 18, Procedure II: Herbicide No. 1 + ERADICANE (EPTC + R-25788) with auxiliary antidotes; format: in vivo; details: Herbicide No. 1 + ERADICANE 8.96 kg/ha, PPI, Table 18
Method: as §1, §2, §3, §7
Test procedures were those of Procedure II above.

[12] = system: corn; assay: Example 15, Procedure II: Herbicide No. 1 + butylate (No. 10) with antidotes; format: in vivo; details: Herbicide No. 1 1.12 and 0.56 kg/ha + Herbicide No. 10 6.72 kg/ha PPI, Table 15
Method: as §1, §2, §3
This example describes experiments designed to investigate the antidotal efficacy of a plurality of antidotes against the herbicidal action of a combination of Herbicide No. 1 and butylate in corn and the prevalent weeds barnyardgrass and velvetleaf. The antidotes used in these experiments were Nos. 1-10, 12, 13 and 15.
The test procedure used in these experiments was that of Procedure II described above. The antidotes were applied to a soil cover layer by pipet after spraying the herbicides onto the soil, followed by incorporation and overhead irrigation.

[13] = system: corn; assay: Example 12, Procedure II: Herbicide No. 1 + acetochlor (No. 6) with thirteen antidotes; format: in vivo
Method: as §1, §2, §3
This example was designed to investigate the efficacy of thirteen different antidotes from different classes of chemistry as safeners against compositions of Herbicide No. 1 and acetochlor (Herbicide No. 6) as co-herbicide. Acetochlor is the active ingredient in the commercial herbicides GUARDIAN® and WENNER®.
The test procedure used in this example was Procedure II described above.

[14] = system: corn; assay: Example 6, Procedure II: Herbicide No. 1 + alachlor (No. 7) with antidotes; format: in vivo; details: Herbicides 1 and 7 applied PPI, Table 6
Method: as §1, §2, §3
This example was designed to investigate the antidotal efficacy of a plurality of antidotal compounds against a composition comprising Herbicide No. 1 in combination with Herbicide No. 7 (alachlor). The antidotal compounds used herein were Nos. 1, 2, 7, 13 and 15.
as §6

Structure (SMILES): CC1(C)CN2C(=O)CCC2(C)N(C(=O)C(Cl)Cl)C1 (stereo not drawn) [Antidote No. 14, 5-Dichloroacetyl-3,3,6-trimethyl-9-oxo-1,5-diazabicyclo[4.3.0]nonane]
- safening of corn, assessment in words [1]: Commercial-level safening was exhibited at all rates and combinations

Structure (SMILES): CC1CN(C(=O)C(Cl)Cl)C(C)(C)O1 (stereo not drawn) [Antidote No. 5, Oxazolidine, 3-(dichloroacetyl)-2,2,5-trimethyl-]
- safening of corn, assessment in words [1]: Commercial-level safening was exhibited at all rates and combinations

Structure (SMILES): Cc1cccc(C)c1N(Cn1cccn1)C(=O)CCl [Herbicide No.14]
- % Injury Corn ([2]; Herbicide No.14 3.36 kg/ha alone, no antidote): 85%
- % Injury VL [3]: 65%
- % Injury BYG [4]: 100%

Structure (SMILES): C=CCN(CC=C)C(=O)C(Cl)Cl [Antidote No. 1, Acetamide, N,N-bis(2-propenyl)-α,α-dichloro]
- safening of corn, assessment in words ([5]; Herbicide Nos. 1 and 12, Table 7): best safening effect across four treatments
- corn injury [6]: 25%
- safening of corn, assessment in words [7]: best safening effect across four treatments
- inhibition at 7.41 g/ha ([8]; Zea mays, pre-emergence, Herbicide No. 3 0.25 G/ha + Antidote No. 1 7.41 G/ha, read-out: corn injury, percent inhibition of growth): 43%
- safening of corn, assessment in words [2]: outperformed the antidotes (2 and 13) of other chemistries
- safening of corn, assessment in words [9]: did not exhibit noticeable safening effect
- % Injury Corn [10]: 50%

Structure (SMILES): O=C(C(Cl)Cl)N1CCOC12CCCCC2 [Antidote No. 7, 1-Oxa-4-azaspiro[4,5]decane, 4-(dichloroacetyl)-]
- % Injury Corn ([5]; Herbicide No.1 0.56 + No.12 3.36 kg/ha + antidote 2.24 kg/ha): 20%
- corn injury [6]: 25%
- corn injury, assessment in words [11]: slightly lower
- safening of corn, assessment in words [12]: complete protection against corn injury
- safening of corn, assessment in words [2]: outperformed the antidotes (2 and 13) of other chemistries

Structure (SMILES): O=C1OC(=O)c2cccc3cccc1c23 [Antidote No. 2, 1H, 3H-Naphtho [1,8-cd]pyran-1,3-dione]
- safening of corn, assessment in words ([13]; Herbicide No. 1:Herbicide 6:Antidote 0.56:2.24:2.24 kg/ha): performed at commercial levels
- safening of corn, assessment in words ([8]; Herbicide Nos. 1-3 at the two highest rates): significantly reduced corn injury
- safening of corn, assessment in words [9]: significantly reduced corn injury by Herbicides No. 1 and 3 at the highest rates of application, but not at lower rates

Structure (SMILES): CC1(C(Cl)Cl)OCCO1 [Antidote No. 13, 1,3-Dioxolane, 2-(dichloromethyl)-2-methyl-]
- safening of corn, assessment in words [14]: best safening effect across four treatments
- safening of corn, assessment in words ([6]; Herbicide No. 1 + ERADICANE EXTRA, Table 19): most efficacious antidote across all four treatments
- safening of corn, assessment in words [12]: best safening effect at the highest rate
- safening of corn, assessment in words ([13]; Herbicide No. 1:Herbicide 6:Antidote 0.14:2.24:2.24 kg/ha): performed at commercial levels
